Data published in ChEMBL document CHEMBL2429737, “Synthesis and study of benzothiazole conjugates in the control of cell proliferation by modulating Ras/MEK/ERK-dependent pathway in MCF-7 cells” (Bioorg Med Chem Lett, 2013).
Calls of active or inactive are those of the source. The rule behind the calls is not given here.

What was measured:
[1] = tested on: MCF-10A; test: Cytotoxicity against human MCF10A cells after 72 hrs by MTT assay; assay type: cell-based
[2] = tested on: MCF-10A; test: Selectivity index, ratio of IC50 for human MCF10A cells to IC50 for human MDA-MB-231 cells; assay type: functional
[3] = tested on: MDA-MB-231; test: Cytotoxicity against human MDA-MB-231 cells after 72 hrs by MTT assay; assay type: functional, cell-based; conditions: MDA-MB-231, 72 h
[4] = tested on: MDA-MB-231; test: Cytotoxicity against human MDA-MB-231 cells after 48 hrs by SRB assay; assay type: functional; conditions: MDA-MB-231, 48 h
[5] = tested on: MCF7; test: Cytotoxicity against human MCF7 cells after 48 hrs by SRB assay; assay type: functional; conditions: MCF7, 48 h
[6] = tested on: MCF7; test: Selectivity index, ratio of IC50 for human MCF10A cells to IC50 for human MCF7 cells; assay type: functional
[7] = Cytotoxicity against HEK cells at 0.25 to 64 ug after 72 hrs by MTT assay; assay type: cell-based; conditions: human, hek293, 72 h
[8] = tested on: MCF7; test: Cytotoxicity against human MCF7 cells after 72 hrs by MTT assay; assay type: functional, cell-based; conditions: MCF7, 72 h
[9] = tested on: MCF7; test: Down regulation of Ras protein expression in human MCF7 cells at 2 to 4 uM after 24 hrs by Western blotting analysis; assay type: functional, cell-based
[10] = target: Mitogen-activated protein kinase; ERK1/ERK2 (Homo sapiens) (UniProt P27361+P28482); test: Inhibition of ERK1/2 phosphorylation in human MCF7 cells at 2 to 4 uM after 24 hrs by Western blotting analysis; assay type: cell-based
Mitogen-activated protein kinase; ERK1/ERK2 (Homo sapiens), sequence (P27361 whole entry, looked up): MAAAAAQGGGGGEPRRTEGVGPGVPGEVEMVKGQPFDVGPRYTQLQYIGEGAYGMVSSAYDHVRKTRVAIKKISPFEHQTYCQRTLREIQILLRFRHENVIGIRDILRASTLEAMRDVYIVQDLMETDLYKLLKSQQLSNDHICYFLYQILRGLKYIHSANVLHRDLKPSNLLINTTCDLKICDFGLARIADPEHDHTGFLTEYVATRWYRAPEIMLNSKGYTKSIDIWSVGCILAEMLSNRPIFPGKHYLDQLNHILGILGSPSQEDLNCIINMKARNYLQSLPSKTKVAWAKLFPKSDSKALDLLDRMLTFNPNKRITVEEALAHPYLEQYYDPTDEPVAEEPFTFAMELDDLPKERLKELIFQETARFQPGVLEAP
Mitogen-activated protein kinase; ERK1/ERK2 (Homo sapiens), sequence (P28482 whole entry, looked up): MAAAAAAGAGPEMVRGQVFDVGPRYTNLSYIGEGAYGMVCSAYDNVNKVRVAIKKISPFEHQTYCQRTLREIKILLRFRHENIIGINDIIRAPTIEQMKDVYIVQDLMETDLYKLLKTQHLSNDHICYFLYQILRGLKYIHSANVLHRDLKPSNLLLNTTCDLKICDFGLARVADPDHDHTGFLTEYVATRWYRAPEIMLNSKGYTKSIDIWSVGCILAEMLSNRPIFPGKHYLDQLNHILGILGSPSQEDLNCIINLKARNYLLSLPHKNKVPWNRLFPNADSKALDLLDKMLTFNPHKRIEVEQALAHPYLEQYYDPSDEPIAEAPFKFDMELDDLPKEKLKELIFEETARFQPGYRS

[11] = tested on: MCF7; test: Induction of apoptosis in human MCF7 cells assessed as increase in caspase-9 activity at 2 uM after 24 hrs by fluorescence assay
[12] = tested on: MCF7; test: Down regulation of integrin alphaVbeta3 protein expression in human MCF7 cells at 2 to 4 uM after 24 hrs by Western blotting analysis
[13] = tested on: MCF7; test: Down regulation of MEK1 protein expression in human MCF7 cells at 2 to 4 uM after 24 hrs by Western blotting analysis; assay type: functional, cell-based
[14] = tested on: MCF7; test: Down regulation of VEGF protein expression in human MCF7 cells at 2 to 4 uM after 24 hrs by Western blotting analysis; assay type: functional, cell-based
[15] = tested on: MCF7; test: Cytotoxicity against human MCF7 cells at 4 uM after 72 hrs by MTT assay; assay type: functional

inhibition [10] | Structure (SMILES) | IC50 [1] | Ratio IC50 [2] | IC50 [3] | GI50 [4] | GI50 [5] | Ratio IC50 [6] | Activity [7] | IC50 [8] | Activity [9] | Activity [11] | Activity [12] | Activity [13] | Activity [14] | Activity [15]
 | Cc1ccc(-c2ccc(F)cc2)n1-c1ccc(-c2nc3ccc(F)cc3s2)cc1 | 37.8 µM | 2.68 | 14.1 µM | 3.03 µM | 1.79 µM | 13.48 | Non-toxic | 2.8 µM |  |  |  |  |  | 
 | COc1ccc2nc(-c3ccc(-n4c(C)ccc4-c4ccc(F)cc4)cc3)sc2c1 | 38.3 µM | 2.77 | 13.8 µM | 4.06 µM | 2.48 µM | 13.67 | Non-toxic | 2.8 µM |  |  |  |  |  | 
 | Cc1ccc(-c2ccc(C)n2-c2ccc(-c3nc4ccc(F)cc4s3)cc2)cc1 | 33.6 µM | 2.01 | 16.7 µM | 3.14 µM | 2.15 µM | 11.3 | Non-toxic | 2.97 µM |  |  |  |  |  | 
 | COc1ccc(-c2ccc(C)n2-c2ccc(-c3nc4ccc(F)cc4s3)cc2)cc1 | 37.8 µM | 1.98 | 19 µM | 3.07 µM | 2.12 µM | 14.85 | Non-toxic | 2.54 µM |  |  |  |  |  | 
Active | COc1cc([C@@H]2c3cc4c(cc3[C@@H](O[C@@H]3O[C@@H]5CO[C@@H](C)O[C@H]5[C@H](O)[C@H]3O)[C@H]3COC(=O)[C@H]23)OCO4)cc(OC)c1O [ETOPOSIDE] | 36.3 µM | 24.17 | 1.5 µM | 1.67 µM | 0.87 µM | 30.21 |  | 1.2 µM | Active | Active | Active | Active | Active | 
 | COc1cc2nc(-c3ccc(-n4c(C)ccc4-c4ccc(F)cc4)cc3)sc2c(OC)c1OC | 43.2 µM | 3.29 | 13.1 µM | 3.94 µM | 2.67 µM | 14.83 | Non-toxic | 2.91 µM |  |  |  |  |  | 
 | COc1ccc2nc(-c3ccc(-n4c(C)ccc4-c4ccc([N+](=O)[O-])cc4)cc3)sc2c1 | 34.9 µM | 2.74 | 12.7 µM | 4.56 µM | 3.17 µM | 25.3 | Non-toxic |  |  |  |  |  |  | 
 | Cc1ccc(-c2ccc(C)n2-c2ccc(-c3nc4ccccc4s3)cc2)cc1 | 30.6 µM | 1.71 | 17.8 µM | 4.4 µM | 2.5 µM | 9.1 | Non-toxic | 3.1 µM |  |  |  |  |  | 
 | COc1cc(-c2ccc(C)n2-c2ccc(-c3nc4ccccc4s3)cc2)cc(OC)c1OC | 38.8 µM | 2.42 | 16 µM | 3.45 µM | 2.34 µM | 8.87 | Non-toxic | 4.37 µM |  |  |  |  |  | 
 | COc1cc2nc(-c3ccc(-n4c(C)ccc4-c4ccc(C)cc4)cc3)sc2c(OC)c1OC | 42.5 µM | 3.45 | 12.3 µM | 4.14 µM | 2.91 µM | 13.66 | Non-toxic | 3.11 µM |  |  |  |  |  | 
 | COc1ccc(-c2ccc(C)n2-c2ccc(-c3nc4ccccc4s3)cc2)cc1 | 36.3 µM | 2.44 | 14.8 µM | 3.99 µM | 2.78 µM | 11.13 | Non-toxic | 3.25 µM |  |  |  |  |  | 
 | Cc1ccc(-c2ccc([N+](=O)[O-])cc2)n1-c1ccc(-c2nc3ccccc3s2)cc1 | 38.8 µM | 3.2 | 12.1 µM | 3.9 µM | 2.54 µM | 12.47 | Non-toxic | 3.11 µM |  |  |  |  |  | 
 | COc1ccc(-c2ccc(C)n2-c2ccc(-c3nc4ccc(OC)cc4s3)cc2)cc1 | 30.6 µM | 2.23 | 12.7 µM | 4.12 µM | 3.09 µM | 6.36 | Non-toxic | 4.83 µM |  |  |  |  |  | 
 | Cc1ccc(-c2ccc(F)cc2)n1-c1ccc(-c2nc3ccccc3s2)cc1 | 40 µM | 3.4 | 11.8 µM | 4.34 µM | 2.62 µM | 12.57 | Non-toxic | 3.18 µM |  |  |  |  |  | 
 | COc1ccc(-c2ccc(C)n2-c2ccc(-c3nc4cc(OC)c(OC)c(OC)c4s3)cc2)cc1 | 43.9 µM | 3.5 | 12.5 µM | 2.24 µM | 1.23 µM | 19.945 | Non-toxic | 2.2 µM |  |  |  |  |  | 50%
 | COc1ccc2nc(-c3ccc(-n4c(C)ccc4-c4ccc(C)cc4)cc3)sc2c1 | 34 µM | 1.65 | 20.5 µM | 4.01 µM | 2.57 µM | 11.92 | Non-toxic | 2.85 µM |  |  |  |  |  | 
 | COc1cc(-c2ccc(C)n2-c2ccc(-c3nc4ccc(F)cc4s3)cc2)cc(OC)c1OC | 40 µM | 2.6 | 15.4 µM | 3 µM | 1.41 µM | 16.93 | Non-toxic | 2.36 µM |  |  |  |  |  | 
Active | COc1ccc2nc(-c3ccc(-n4c(C)ccc4-c4cc(OC)c(OC)c(OC)c4)cc3)sc2c1 | 37.8 µM | 2.92 | 12.9 µM | 1.76 µM | 0.92 µM | 24.84 | Non-toxic | 1.52 µM | Active | Active | Active | Active | Active | 50%
 | Cc1ccc(-c2ccc([N+](=O)[O-])cc2)n1-c1ccc(-c2nc3ccc(F)cc3s2)cc1 | 39 µM | 2.29 | 17 µM | 1.67 µM | 0.918 µM | 16.4 | Non-toxic | 2.37 µM |  |  |  |  |  | 
